“Also recorded” adds a separate entry of the source. Where two headings read alike, the source gives them in different places. Blank lines part the entries; values can stand above or below the molecule they belong to. Bridge positions count the residues as written; N and C are the ends. Square brackets hold non-standard residues; d marks the D form. Peptide text beside a SMILES is read from it. Bip = N[C@@H](Cc1ccc(-c2ccccc2)cc1)C(=O)O; d2Nal = N[C@H](Cc1ccc2ccccc2c1)C(=O)O; hArg = N=C(N)NCCCC[C@H](N)C(=O)O; Nle = CCCC[C@H](N)C(=O)O; Ahx = NCCCCCC(=O)O; βAla = NCCC(=O)O
How the values were obtained:
hMC5-R [1] = target: T1, hMC5-R (Homo sapiens, UniProt P33032); assay: Radioligand binding assay, [125I]-NDP-α-MSH competition, CHO-K1 membranes; settings: Table 5
T1 construct: expressed in transfected cells; host or cells: CHO-K1
T1 sequence (P33032 whole entry): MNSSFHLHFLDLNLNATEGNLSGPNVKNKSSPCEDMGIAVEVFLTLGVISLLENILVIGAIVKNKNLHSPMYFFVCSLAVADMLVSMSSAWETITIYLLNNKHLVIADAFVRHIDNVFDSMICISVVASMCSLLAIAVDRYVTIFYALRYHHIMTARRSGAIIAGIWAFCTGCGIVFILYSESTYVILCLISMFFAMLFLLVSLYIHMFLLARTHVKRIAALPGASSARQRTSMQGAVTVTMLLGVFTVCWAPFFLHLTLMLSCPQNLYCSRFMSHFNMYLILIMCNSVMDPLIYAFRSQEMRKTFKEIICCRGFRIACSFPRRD

hMC5-R [2] = target: T1, hMC5-R; assay: cyclic AMP bioassay (ECL) in CHO-K1 cells; format: cell-based
obese Zucker rats [3] = assay: Body weight and food intake, 7 day sc infusion; format: in vivo, rat; settings: for decrease in body weight gain: day 7, vs vehicle; for decrease in food intake: end of 7 day treatment
Procedure: (§1) The dosage forms were prepared prior to the start of the experiment and used to fill the pumps under sterile conditions. Pumps were primed overnight at 37° C. in sterile saline and implanted on the starting day of the experiment.
The Zucker rats are obese due to a spontaneous mutation in the […].
(§2) Three groups of eight obese male Zucker rats (350-400 g) were housed in individual cages and maintained under 12:12 hour light:dark conditions with both food (Harlan Teklad Sterilized Rodent Diet LM-485) and water available ad libitum.
(§3) On the morning of day 1, the rats were anesthetized using chlorohydrate anesthetic and implanted with a sub-cutaneous infusion pump (Alzet® 2002) just under the skin. […] Individual body weight and food and water consumption were measured daily at 0800 hours for 7 days.

obese Zucker rats [4] = assay: Intravenous glucose tolerance test after 7 day sc infusion; format: in vivo, rat
Procedure: as §1, §2, §3
(§4) On day 7 a right atrial cannula was implanted in the jugular vein under cholorohydrate anesthesia. The animals were fasted overnight and an intravenous (iv) glucose tolerance test was performed. Glucose (1 g/kg) was injected at time 0 and blood samples were taken via the cannula at 0, 2.5, 5, 10, 20 and 40 minutes post-injection. Plasma was collected and assayed for glucose (Glucose (Trinder) Assay; Diagnostic Chemicals Limited, Charlottetown, P.E.I., Canada; Cat #220-32) and insulin (Mercodia Rat Insulin ELISA; Mercodia, Uppsala, Sweden; ALPCO 10-1124-10) content. At the conclusion of the glucose tolerance test and additional serum samples were collected and assayed for triglycerides (Triglyceride L-Type TG H kit: Wako Diagnostics, Richmond, Va.), cholesterol (Cholesterol E assay kit: Wako Diagnostics, Richmond, Va.) and free fatty acids (Fatty Acid HR series NEFA-HR2 kit: Wako Diagnostics, Richmond, Va.).

obese Zucker rats [5] = assay: Serum triglycerides, cholesterol and free fatty acids after 7 day sc infusion; format: in vivo, rat; settings: 50 and 500 nmole/kg/day sc infusion
Procedure: as §1, §2, §3, §4

hMC1-R [6] = target: T2, hMC1-R (Homo sapiens, UniProt Q01726); assay: Radioligand binding assay, [125I]-NDP-α-MSH competition, CHO-K1 membranes; settings: Table 5; read-out: Ki hMC1-R
T2 construct: expressed in transfected cells; host or cells: CHO-K1
T2 sequence (Q01726 whole entry): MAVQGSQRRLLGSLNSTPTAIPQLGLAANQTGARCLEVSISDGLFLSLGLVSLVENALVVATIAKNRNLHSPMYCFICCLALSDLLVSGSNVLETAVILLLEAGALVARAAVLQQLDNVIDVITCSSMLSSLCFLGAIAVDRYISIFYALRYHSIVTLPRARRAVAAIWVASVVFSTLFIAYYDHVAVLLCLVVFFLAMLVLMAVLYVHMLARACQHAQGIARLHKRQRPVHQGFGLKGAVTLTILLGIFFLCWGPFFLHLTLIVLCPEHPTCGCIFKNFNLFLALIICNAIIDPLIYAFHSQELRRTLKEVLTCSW

hMC3-R [7] = target: T3, hMC3-R (Homo sapiens, UniProt P41968); assay: as above; settings: Table 5; read-out: Ki hMC3-R
T3 construct: expressed in transfected cells; host or cells: CHO-K1
T3 sequence (P41968 whole entry): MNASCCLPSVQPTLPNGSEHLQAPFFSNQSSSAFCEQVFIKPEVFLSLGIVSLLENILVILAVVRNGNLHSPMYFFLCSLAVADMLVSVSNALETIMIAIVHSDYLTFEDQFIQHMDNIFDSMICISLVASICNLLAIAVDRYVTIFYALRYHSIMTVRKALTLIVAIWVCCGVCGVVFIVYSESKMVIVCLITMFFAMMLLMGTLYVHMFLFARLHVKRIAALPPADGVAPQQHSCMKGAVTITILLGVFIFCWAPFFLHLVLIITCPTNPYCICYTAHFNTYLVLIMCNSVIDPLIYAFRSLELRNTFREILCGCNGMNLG

hMC4-R [8] = target: T4, hMC4-R (Homo sapiens, UniProt P32245); assay: as above; settings: Table 5; read-out: Ki KMC4-R
T4 construct: expressed in transfected cells; host or cells: CHO-K1
T4 sequence (P32245 whole entry): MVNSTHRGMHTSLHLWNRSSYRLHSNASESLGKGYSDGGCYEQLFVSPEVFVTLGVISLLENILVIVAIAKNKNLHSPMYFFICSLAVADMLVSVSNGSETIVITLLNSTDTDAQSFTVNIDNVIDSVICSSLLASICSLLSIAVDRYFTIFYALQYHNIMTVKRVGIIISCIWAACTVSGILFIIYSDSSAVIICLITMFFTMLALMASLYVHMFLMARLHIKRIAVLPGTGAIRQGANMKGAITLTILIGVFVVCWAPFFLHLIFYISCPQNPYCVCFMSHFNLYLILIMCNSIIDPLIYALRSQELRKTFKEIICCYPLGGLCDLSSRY

hMC1-R [9] = target: T2, hMC1-R; assay: cyclic AMP bioassay (ECL) in CHO-K1 cells; format: cell-based; settings: read-out: EC50 hMC1-R
Procedure: Intracellular cyclic AMP (cAMP) levels were determined by an electrochemiluminescence (ECL) assay (Meso Scale Discovery®, Gaithersburg, Md.; referred to hereinafter as MSD). […] Transgenic CHO-K1 cells stably expressing hMC receptor subtypes 1, 3, 4 or 5 were dispensed at a density of approximately 7,000 cells/well in 384-well Multi-Array®plates (MSD) containing integrated carbon electrodes and coated with anti-cAMP antibody. Increasing concentrations of the test compounds were added and the cells were incubated for approximately 40 minutes at approximately 37° C. […] At the end of the second incubation period read buffer (Tris-buffered solution containing an ECL co-reactant and Triton X-100 at ph 7.8) was added and the cAMP levels in the cell lysates were immediately determined by ECL detection with a Sector Imager 6000 Reader® (MSD). Data were analyzed using a computer-assisted non-linear regression analysis (XL fit; IDBS) and reported as either an EC50 value or a Kb value.
The Kb value reflects the potency of an antagonist and is determined by Schild analysis. In brief, concentration-response curves of an agonist are carried out in the presence of increasing concentrations of an antagonist. […] It is calculated by extrapolating the line on a Schild plot to zero on the y-axis.

hMC3-R [10] = target: T3, hMC3-R; assay: cyclic AMP bioassay (ECL) in CHO-K1 cells; format: cell-based
hMC4-R [11] = target: T4, hMC4-R; assay: cyclic AMP bioassay (ECL) in CHO-K1 cells; format: cell-based

Structure (SMILES): CC(=O)N[C@@H](CCCNC(=N)N)C(=O)N[C@H]1CSSC[C@@H](C(N)=O)NC(=O)[C@H](Cc2c[nH]c3ccccc23)NC(=O)[C@H](CCCNC(=N)N)NC(=O)[C@@H](Cc2ccccc2)NC(=O)[C@H](Cc2c[nH]cn2)NC(=O)[C@@H](C)NC1=O [Compound A, Ac-Arg-c(Cys-D-Ala-His-D-Phe-Arg-Trp-Cys)-NH2]
Ki (hMC5-R [1]; Ki hMC5-R): 430 nM
EC50 (hMC5-R [2]): 1630 nM
decrease in body weight gain (obese Zucker rats [3]; 50 nmole/kg/day sc infusion): 35 g
decrease in food intake (obese Zucker rats [3]; 50 nmole/kg/day sc infusion): 60 g
decrease in body weight gain (obese Zucker rats [3]; 500 nmole/kg/day sc infusion): 60 g
decrease in food intake (obese Zucker rats [3]; 500 nmole/kg/day sc infusion): 100 g
basal fasted plasma glucose (obese Zucker rats [4]; 500 nmole/kg/day sc infusion, fasted overnight): decreased
plasma glucose levels after a glucose challenge (obese Zucker rats [4]; 50 and 500 nmole/kg/day, glucose 1 g/kg iv): decreased
amount of insulin required to clear the glucose challenge (obese Zucker rats [4]; 7 day infusion, glucose tolerance test): decreased
serum cholesterol (obese Zucker rats [5]): Dose-related decrease
serum free fatty acids (obese Zucker rats [5]): dose-related decreases; also recorded: Decrease
serum triglycerides (obese Zucker rats [5]): Dose-related decrease

Ki (hMC1-R [6]): 0.128 nM
Ki (hMC3-R [7]): 85.6 nM
Ki (hMC4-R [8]): 36.9 nM
Ki (hMC5-R [1]; read-out: Ki hMC5-R): 38 nM
EC50 (hMC1-R [9]; Table 9A/9B): 0.685 nM
EC50 (hMC3-R [10]; Table 9A/9B, read-out: EC50 hMC3-R): 81.8 nM
EC50 (hMC4-R [11]; Table 9A/9B, read-out: EC50 hMC4-R): 86.9 nM
EC50 (hMC5-R [2]; Table 9A/9B, read-out: EC50 hMC5-R): 31.8 nM
Structure (SMILES): CCOc1ccc(C[C@H]2NC(=O)[C@H](Cc3c[nH]cn3)NC(=O)[C@@H](NC(=O)[C@H](N)Cc3ccccc3)CSSC[C@H](C(=O)N[C@H](C(N)=O)[C@@H](C)O)NC(=O)CCNC(=O)[C@H](Cc3ccc(-c4ccccc4)cc3)NC(=O)[C@H](CCCCNC(=N)N)NC2=O)cc1 [D-Phe-c(Cys-His-D-(Et)Tyr-hArg-Bip-β-Ala-D-Cys)-Thr-NH2] (H-[dF]CH[dY](Et)[hArg][Bip][βAla][dC]T-NH2; disulfide 2-8)

Ki (hMC1-R [6]): 0.333 nM
Ki (hMC3-R [7]): 2.91 nM
Ki (hMC4-R [8]): 0.998 nM
Ki (hMC5-R [1]; read-out: Ki hMC5-R): 0.366 nM
EC50 (hMC1-R [9]; Table 9C/9D): 0.581 nM
Kb (hMC3-R [10]; Table 9C/9D, antagonist potency by Schild analysis, read-out: Kb hMC3-R): 10.8 nM
Kb (hMC4-R [11]; Table 9C/9D, antagonist potency by Schild analysis, read-out: Kb MC4-R): 0.967 nM
EC50 (hMC5-R [2]; Table 9C/9D, read-out: EC50 hMC5-R): 0.126 nM
Structure (SMILES): CCCC[C@H](NC(C)=O)C(=O)N[C@H]1CSSC[C@@H](C(N)=O)NC(=O)CCCCCNC(=O)[C@H](Cc2c[nH]c3ccccc23)NC(=O)[C@H](CCCNC(=N)N)NC(=O)[C@@H](Cc2ccc3ccccc3c2)NC(=O)[C@H](Cc2c[nH]cn2)NC1=O [Ac-Nle-c(Cys-His-D-2-Nal-Arg-Trp-Ahx-Cys)-NH2] (Ac-[Nle]CH[d2Nal]RW[Ahx]C-NH2; disulfide 2-8 (inferred))

— patent US20120135923A1, “Use of Melanocortins to Treat Dyslipidemia” (IPSEN PHARMA, S.A.S., priority 2009, published 2012)
